PubChem BioAssay AID2060611 (Molecular Pharmacology Branch, DTP, NCI, 2025)
Several values for one entry are separate records, joined by “and”; a condition that tells them apart may be missing. Identical values can stand only once.

System: 628569-122-R-J1-PDC complex spheroid viability
Experiment: Anticancer human tumor 628569-122-R-J1-PDC patient-derived head and neck squamous carcinoma cell line growth inhibition [CLK]
Conditions: for viability, T/C: stronger effect = lower value
Method in brief: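 Multi-cell-type spheroids combined patient-derived tumor cells with HUVEC endothelial cells and human mesenchymal stem cells. Paired agents were dosed in half-log steps down from about clinical Cmax, or from 10 microM where Cmax was unknown.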

[1] = curve of first compound, second compound 0.0316 µM
[2] = curve of first compound, second compound 0.1 µM
[3] = curve of first compound, second compound 0.316 µM
[4] = curve of first compound, second compound 1 µM
[5] = curve of first compound, second compound 3.16 µM
[6] = curve of first compound, second compound 10 µM
[7] = second compound 0.0316 µM, first compound 0.0316 µM
[8] = second compound 0.0316 µM, first compound 0.1 µM
[9] = second compound 0.0316 µM, first compound 0.316 µM
[10] = second compound 0.0316 µM, first compound 1 µM
[11] = second compound 0.0316 µM, first compound 3.16 µM
[12] = second compound 0.0316 µM, first compound 10 µM
[13] = second compound 0.1 µM, first compound 0.0316 µM
[14] = second compound 0.1 µM, first compound 0.1 µM
[15] = second compound 0.1 µM, first compound 0.316 µM
[16] = second compound 0.1 µM, first compound 1 µM
[17] = second compound 0.1 µM, first compound 3.16 µM
[18] = second compound 0.1 µM, first compound 10 µM
[19] = second compound 0.316 µM, first compound 0.0316 µM
[20] = second compound 0.316 µM, first compound 0.1 µM
[21] = second compound 0.316 µM, first compound 0.316 µM
[22] = second compound 0.316 µM, first compound 1 µM
[23] = second compound 0.316 µM, first compound 3.16 µM
[24] = second compound 0.316 µM, first compound 10 µM
[25] = second compound 1 µM, first compound 0.0316 µM
[26] = second compound 1 µM, first compound 0.1 µM
[27] = second compound 1 µM, first compound 0.316 µM
[28] = second compound 1 µM, first compound 1 µM
[29] = second compound 1 µM, first compound 3.16 µM
[30] = second compound 1 µM, first compound 10 µM
[31] = second compound 3.16 µM, first compound 0.0316 µM
[32] = second compound 3.16 µM, first compound 0.1 µM
[33] = second compound 3.16 µM, first compound 0.316 µM
[34] = second compound 3.16 µM, first compound 1 µM
[35] = second compound 3.16 µM, first compound 3.16 µM
[36] = second compound 3.16 µM, first compound 10 µM
[37] = second compound 10 µM, first compound 0.0316 µM
[38] = second compound 10 µM, first compound 0.1 µM
[39] = second compound 10 µM, first compound 0.316 µM
[40] = second compound 10 µM, first compound 1 µM
[41] = second compound 10 µM, first compound 3.16 µM
[42] = second compound 10 µM, first compound 10 µM
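Further: spheroids exposed to agents for seven days before readout.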
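Wherever viability, T/C is given: 100% = DMSO vehicle control viability.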

SMILES: NC(=O)C(=Cn1cnc(-c2cc(C(F)(F)F)cc(C(F)(F)F)c2)n1)c1cncnc1 + CNC(=O)c1ccc(Nc2nc(OC3CCCC3)c3c(-c4ccc5nc(C)oc5c4)c[nH]c3n2)c(OC)c1
- IC50 [1]: 0.681 µM
- IC50 [2]: 0.137 µM
- IC50 [3]: < 0.00949 µM
- IC50 [4]: < 0.00949 µM
- IC50 [5]: < 0.00949 µM
- IC50 [6]: < 0.00949 µM
- viability, T/C (second compound 0.0316 µM, first compound 0.00949 µM): 75.8%
- viability, T/C (second compound 0.0316 µM, first compound 0.03 µM): 61.6%
- viability, T/C (second compound 0.0316 µM, first compound 0.0949 µM): 69.8%
- viability, T/C (second compound 0.0316 µM, first compound 0.3 µM): 52%
- viability, T/C (second compound 0.0316 µM, first compound 0.949 µM): 50.8%
- viability, T/C (second compound 0.0316 µM, first compound 3 µM): 35.6%
- viability, T/C (second compound 0.1 µM, first compound 0.00949 µM): 52.4%
- viability, T/C (second compound 0.1 µM, first compound 0.03 µM): 53.9%
- viability, T/C (second compound 0.1 µM, first compound 0.0949 µM): 50.5%
- viability, T/C (second compound 0.1 µM, first compound 0.3 µM): 47.5%
- viability, T/C (second compound 0.1 µM, first compound 0.949 µM): 39.5%
- viability, T/C (second compound 0.1 µM, first compound 3 µM): 32.4%
- viability, T/C (second compound 0.316 µM, first compound 0.00949 µM): 47.1%
- viability, T/C (second compound 0.316 µM, first compound 0.03 µM): 51.7%
- viability, T/C (second compound 0.316 µM, first compound 0.0949 µM): 44.1%
- viability, T/C (second compound 0.316 µM, first compound 0.3 µM): 42.5%
- viability, T/C (second compound 0.316 µM, first compound 0.949 µM): 35.9%
- viability, T/C (second compound 0.316 µM, first compound 3 µM): 33.8%
- viability, T/C (second compound 1 µM, first compound 0.00949 µM): 40.7%
- viability, T/C (second compound 1 µM, first compound 0.03 µM): 45.9%
- viability, T/C (second compound 1 µM, first compound 0.0949 µM): 31.9%
- viability, T/C (second compound 1 µM, first compound 0.3 µM): 29.5%
- viability, T/C (second compound 1 µM, first compound 0.949 µM): 26.2%
- viability, T/C (second compound 1 µM, first compound 3 µM): 25.7%
- viability, T/C (second compound 3.16 µM, first compound 0.00949 µM): 36.9%
- viability, T/C (second compound 3.16 µM, first compound 0.03 µM): 41.2%
- viability, T/C (second compound 3.16 µM, first compound 0.0949 µM): 28.7%
- viability, T/C (second compound 3.16 µM, first compound 0.3 µM): 25.5%
- viability, T/C (second compound 3.16 µM, first compound 0.949 µM): 15.9%
- viability, T/C (second compound 3.16 µM, first compound 3 µM): 12.3%
- viability, T/C (second compound 10 µM, first compound 0.00949 µM): 38.6%
- viability, T/C (second compound 10 µM, first compound 0.03 µM): 33.7%
- viability, T/C (second compound 10 µM, first compound 0.0949 µM): 30.7%
- viability, T/C (second compound 10 µM, first compound 0.3 µM): 21.4%
- viability, T/C (second compound 10 µM, first compound 0.949 µM): 17.7%
- viability, T/C (second compound 10 µM, first compound 3 µM): 13.7%

SMILES: COC1C=CCC(C)C(C)S(=O)(=O)NC(=O)c2ccc3c(c2)N(CC2CCC21)CC1(CCCc2cc(Cl)ccc21)CO3 (stereo not given) + CNC(=O)c1ccc(Nc2nc(OC3CCCC3)c3c(-c4ccc5nc(C)oc5c4)c[nH]c3n2)c(OC)c1
- IC50 [1]: 2 µM
- IC50 [2]: 0.142 µM
- IC50 [3]: < 0.0316 µM
- IC50 [4]: < 0.0316 µM
- IC50 [5]: < 0.0316 µM
- IC50 [6]: < 0.0316 µM
- viability, T/C [7]: 103%
- viability, T/C [8]: 87.7%
- viability, T/C [9]: 64.8%
- viability, T/C [10]: 55.4%
- viability, T/C [11]: 48.4%
- viability, T/C [12]: 43.5%
- viability, T/C [13]: 58.7%
- viability, T/C [14]: 51%
- viability, T/C [15]: 47.7%
- viability, T/C [16]: 40.3%
- viability, T/C [17]: 34.8%
- viability, T/C [18]: 34.3%
- viability, T/C [19]: 46.3%
- viability, T/C [20]: 49.7%
- viability, T/C [21]: 36.7%
- viability, T/C [22]: 33.1%
- viability, T/C [23]: 35.8%
- viability, T/C [24]: 33.4%
- viability, T/C [25]: 51.2%
- viability, T/C [26]: 45.9%
- viability, T/C [27]: 36.9%
- viability, T/C [28]: 35.9%
- viability, T/C [29]: 46%
- viability, T/C [30]: 34.6%
- viability, T/C [31]: 43.2%
- viability, T/C [32]: 41.1%
- viability, T/C [33]: 33.4%
- viability, T/C [34]: 29.4%
- viability, T/C [35]: 30.9%
- viability, T/C [36]: 25.4%
- viability, T/C [37]: 40.1%
- viability, T/C [38]: 38.4%
- viability, T/C [39]: 32.1%
- viability, T/C [40]: 30.5%
- viability, T/C [41]: 35.9%
- viability, T/C [42]: 26.4%

SMILES: C#Cc1c(F)ccc2cc(O)cc(-c3ncc4c(N5CC6CCC(C5)N6)nc(OCC56CCCN5CC(F)C6)nc4c3F)c12 (stereo not given) + CN1CCN(c2cc(C(=O)Nc3cc4cc(-c5cnn(C)c5)ccc4cn3)ccn2)CC1
- IC50 [1]: > 10 µM
- IC50 [2]: > 10 µM
- IC50 [3]: < 0.0316 µM
- IC50 [4]: < 0.0316 µM
- IC50 [5]: < 0.0316 µM
- IC50 [6]: < 0.0316 µM
- viability, T/C [7]: 80.5%
- viability, T/C [8]: 100%
- viability, T/C [9]: 88.8%
- viability, T/C [10]: 92.9%
- viability, T/C [11]: 84.8%
- viability, T/C [12]: 96%
- viability, T/C [13]: 56.6%
- viability, T/C [14]: 61.1%
- viability, T/C [15]: 64.8%
- viability, T/C [16]: 63.3%
- viability, T/C [17]: 57.1%
- viability, T/C [18]: 44.9%
- viability, T/C [19]: 32.3%
- viability, T/C [20]: 33.5%
- viability, T/C [21]: 34.9%
- viability, T/C [22]: 42.4%
- viability, T/C [23]: 37.6%
- viability, T/C [24]: 29.9%
- viability, T/C [25]: 7.93%
- viability, T/C [26]: 5.94%
- viability, T/C [27]: 7.93%
- viability, T/C [28]: 8.03%
- viability, T/C [29]: 5.77%
- viability, T/C [30]: 5.01%
- viability, T/C [31]: 9.44%
- viability, T/C [32]: 7.11%
- viability, T/C [33]: 5.82%
- viability, T/C [34]: 5.27%
- viability, T/C [35]: 5.66%
- viability, T/C [36]: 7.7%
- viability, T/C [37]: 5.72%
- viability, T/C [38]: 3.17%
- viability, T/C [39]: 2.28%
- viability, T/C [40]: 4.25%
- viability, T/C [41]: 5.23%
- viability, T/C [42]: 1%

SMILES: O=C(c1cc(Cc2n[nH]c(=O)c3ccccc23)ccc1F)N1CCN(C(=O)C2CC2)CC1 + CNC(=O)c1ccc(Nc2nc(OC3CCCC3)c3c(-c4ccc5nc(C)oc5c4)c[nH]c3n2)c(OC)c1
- IC50 [1]: > 10 µM
- IC50 [2]: > 10 µM
- IC50 [3]: 1.98 µM
- IC50 [4]: < 0.0316 µM
- IC50 [5]: < 0.0316 µM
- IC50 [6]: 0.0316 µM
- viability, T/C [7]: 99.7%
- viability, T/C [8]: 105%
- viability, T/C [9]: 102%
- viability, T/C [10]: 81.9%
- viability, T/C [11]: 103%
- viability, T/C [12]: 61.7%
- viability, T/C [13]: 63.2%
- viability, T/C [14]: 60%
- viability, T/C [15]: 60.7%
- viability, T/C [16]: 59.6%
- viability, T/C [17]: 62.8%
- viability, T/C [18]: 41.7%
- viability, T/C [19]: 50.8%
- viability, T/C [20]: 55.5%
- viability, T/C [21]: 56.6%
- viability, T/C [22]: 51.9%
- viability, T/C [23]: 47.5%
- viability, T/C [24]: 39.7%
- viability, T/C [25]: 39.8%
- viability, T/C [26]: 49.3%
- viability, T/C [27]: 47.5%
- viability, T/C [28]: 47%
- viability, T/C [29]: 45.2%
- viability, T/C [30]: 33.2%
- viability, T/C [31]: 43.7%
- viability, T/C [32]: 44.4%
- viability, T/C [33]: 41.8%
- viability, T/C [34]: 41.2%
- viability, T/C [35]: 42.5%
- viability, T/C [36]: 31.5%
- viability, T/C [37]: 46.6%
- viability, T/C [38]: 41.8%
- viability, T/C [39]: 49.3%
- viability, T/C [40]: 39.1%
- viability, T/C [41]: 56.1%
- viability, T/C [42]: 26.5%

SMILES: O=c1[nH]cc(F)c(=O)[nH]1
- viability, T/C (compound 0.0316 µM): 93.5% and 94.5%
- viability, T/C (compound 0.1 µM): 103% and 97.7%
- viability, T/C (compound 0.316 µM): 96% and 86.2%
- viability, T/C (compound 1 µM): 82.7% and 70.5%
- viability, T/C (compound 3.16 µM): 84.2% and 69.9%
- viability, T/C (compound 10 µM): 68.2% and 50.6%
- IC50 (curve of compound): > 10 µM
